Source: patent US6310243A, “Iodinated x-ray contrast media” (Nycomed Imaging AS, priority 1994, dated 2001)

What was measured:
Type in all cases: physicochemical
[1] = Viscosity in aqueous solution at 20° C.
Protocol: Table 2 also gives calculated value for viscosity in mPas for concentration of 400 mg I/ml and 300 mg I/ml (at 20° C.).

Water solubility = conditions: noted in Table 2 in place of a concentration
Viscosity at 37° C. = experiment: Viscosity at 37° C.

## CC(O)C(=O)Nc1c(I)c(CO)c(I)c(N(CC(O)CO)C(=O)C(C)O)c1I (stereo not shown) [Example 11, N,N'-Bis(2-hydroxypropionyl)-N-(2,3-dihydroxypropyl)-3,5-diamino-2,4,6-triiodobenzylalcohol]
[1]; 407 mgI/ml
  Viscosity 20° C.: 16 mPas

## O=C(Nc1c(I)c(CO)c(I)c(N(CC(O)CO)C(=O)C(O)CO)c1I)C(O)CO (stereo not shown) [Example 15, N,N'-Bis(2,3-dihydroxypropionyl)-N-(2,3-dihydroxyoronyl)-3,5-diamino-2,4,6-triiodobenzylalcohol]
[1]; 348 mgI/ml
  Viscosity 20° C.: 7.8 mPas
[1]; 446 mgI/ml
  Viscosity 20° C.: 22 mPas
[1]; 537 mgI/ml
  Viscosity 20° C.: 75 mPas

## CN(CC(O)CO)C(=O)c1c(I)c(CO)c(I)c(NC(=O)CO)c1I (stereo not shown) [Example 44, 5-Hydroxyacetamido-3-hydroxymethyl-N-methyl-N-(2,3-dihydroxypropyl)-2,4,6-triiodobenzamide]
[1]; 400 mgI/ml, calculated
  Viscosity at 400 mgI/ml (CALCULATED): 10.8 mPas
[1]; 481 mgI/ml
  Viscosity 20° C.: 24 mPas

## OCc1cc(OCC(O)CO)c(I)c(OCC(O)CO)c1I (stereo not shown) [Example 78, 3,5-Bis-(2,3-dihydroxypropyloxy)-2,4-diiodobenzyl alcohol]
Water solubility
  solubility: low

## O=C(Nc1c(I)c(CO)c(I)c(NC(=O)C(O)C(O)CO)c1I)C(O)C(O)CO (stereo not shown) [Example 79, N,N'-Bis-(2,3,4-trihydroxybutanoyl)-3,5-diamino-2,4,6-triiodobenzyl alcohol]
Viscosity at 37° C.
  Viscosity at 350 mgI/ml (CALCULATED): 5.9
Viscosity at 37° C.; 379 mgI/ml
  Viscosity 37° C.: 6.9

## O=C(NCC(O)CO)c1c(I)c(CO)c(I)c(NC(=O)C(O)C(O)CO)c1I (stereo not shown) [Example 80, 5-[N'-(2,3,4-Trihydroxybutanoyl)amino]-3-hydroxymethyl-N-(2,3-dihydroxypropyl)-2,4,6-triiodobenzamide]
Viscosity at 37° C.
  Viscosity at 350 mgI/ml (CALCULATED): 5.2
Viscosity at 37° C.; 444 mgI/ml
  Viscosity 37° C.: 11

## O=C(NC(CO)C(O)CO)c1c(I)c(CO)c(I)c(NC(=O)C(O)C(O)CO)c1I (stereo not shown) [Example 81, 5-[N'-(2,3,4-Trihydroxybutanoyl)-amino]-3-hydroxymethyl-N-(1,3,4-trihydroxybut-2-yl)-2,4,6-triiodobenzamide]
Viscosity at 37° C.
  Viscosity at 350 mgI/ml (CALCULATED): 6.1
Viscosity at 37° C.; 376 mgI/ml
  Viscosity 37° C.: 8.9
